Entries after “also recorded” stand apart in the source; their conditions may differ. Like-named read-outs stand apart in the source and are kept apart here.
Columns and labels:
[1] = tested on: OVCAR5 cells; experiment: Proliferation assay (Incucyte confluency), OVCAR5; format: cell-based, human; conditions: 4 days
Experimental: (§1) COS-7, MDA-MB-231, and HepG2, were cultured in Dulbecco's modified Eagle's medium (DMEM) supplemented with 10% fetal bovine serum (Invitrogen Life Sciences, Carlsbad, CA). BT-549, OVCAR5 and OVCAR8 cells were cultured in L-Glutamine containing RPMI medium supplemented with 10% fetal calf serum (Invitrogen Life Sciences, Carlsbad, CA). The primary Human Mammary Epithelial Cells (HMEC) were cultured in mammary epithelial cell complete medium (basal medium plus rH-Insulin (5 μg/mL); L-Glutamine (6 mM); Epinephrine (1 μM); Apo-Transferrin (5 μg/mL); rH-TGF-α (0.5 ng/mL); ExtractP (0.4%); Hydrocortisone Hemisuccinate (100 ng/mL)).
(§2) 2000 cells were plated in each well of 96-well plate. The next day cells were treated with compounds and incubated in Incucyte for 4 days. Images taken every 4 hours for the duration of the time were analyzed to calculate percentage of confluency in response to the treatments. Growth inhibition was calculated as 1—(percentage of viable cells out of untreated cells).

[2] = Single dose IV and PO PK study in C57BL/6 mice; format: in vivo; conditions: male C57BL/6 mice
Experimental: (§3) C57BL/6 male mice or Han Wistar rats were used, n=3 for each administration route and compound. Single dose of each compound was administered orally (PO, 10 mg/Kg) or by intravenous administration (IV, 1 mg/Kg). Following intravenous and oral administration, blood samples (ca 0.2 mL) were collected and compound amount was measured by HLPC. For IV group, blood samples were collected at 0.083, 0.25, 0.5, 1, 2, 4, 6, 8, and 24 hours post-dose. For PO group, blood samples were collected at 0.25, 0.5, 1, 2, 4, 6, 8, and 24 hours post-dose.

[3] = target: FABP4 (Homo sapiens (Human), UniProt P15090); experiment: Fluorescence (ANS) competition binding assay, FABP4; conditions: ANS displacement
FABP4, sequence (P15090 whole entry, species assumed): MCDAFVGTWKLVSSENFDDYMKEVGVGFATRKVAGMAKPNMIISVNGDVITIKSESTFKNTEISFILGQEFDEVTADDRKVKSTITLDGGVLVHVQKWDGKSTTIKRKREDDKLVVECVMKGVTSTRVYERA
Experimental: (§4) This example illustrates a two-step fluorescence binding assay study used to determine the binding affinity of the various inhibitor compounds disclosed herein with the various FABPs: FABP3, FABP4, FABP5 and FABP7. Further secondary screening studies were carried out for compounds with high binding affinities toward the FABPs and based on their ability to activate the nuclear receptors PPARα, PPARγ, or PPARδ.
(§5) Binding assays for FABP3, FABP4, FABP5 and FABP7 were carried out by fluorescence titrations. His-tagged FABPs were bacterially expressed in E. coli, purified using Ni Sepharose beads, and the equilibrium dissociation constants (Kd) that characterize their interactions with different inhibitor compounds were measured by fluorescence competition assays. The method entails two steps as described in e.g., Lin, Q. et al., “Ligand selectivity of the peroxisome proliferator-activated receptor alpha,” Biochemistry 38, 185-190, doi:10.1021/bi9816094 [pii](1999). In the first step, Kd for the association of the protein with the fluorescent fatty acid probe ANS was measured. Protein (2 μM) was titrated with ANS from a concentrated solution in DMSO. Ligand binding was monitored by following the increase in the fluorescence of the ligand upon binding to the protein, and Kd for the association of ANS with the each FABP was computed from titration curves as described in e.g., Norris, A. W. & Li, E., “Fluorometric titration of the CRABPs,” Methods Mol Biol 89, 123-139 (1998)). In the second step, Kds for binding of non-fluorescent ligands were measured by monitoring their ability to displace ANS in the binding pocket of the protein. Each FABP was precomplexed with ANS at 1:1 molar ratio and titrated with the different compounds whose binding was reflected by a decrease in probe fluorescence. Kds were extracted from the EC50 of the competition curve and the measured Kd for ANS.

[4] = Single dose IV and PO PK study in Han Wistar rats; format: in vivo
Experimental: as §3

[5] = target: FABP3 (Homo sapiens (Human), UniProt P05413); experiment: Fluorescence (ANS) competition binding assay, FABP3; conditions: ANS displacement
FABP3, sequence (P05413 whole entry, species assumed): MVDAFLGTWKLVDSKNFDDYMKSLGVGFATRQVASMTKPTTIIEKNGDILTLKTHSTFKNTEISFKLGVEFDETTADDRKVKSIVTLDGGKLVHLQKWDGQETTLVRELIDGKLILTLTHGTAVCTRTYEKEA
Experimental: as §4, §5

[6] = tested on: BT-549 cells; experiment: Proliferation assay (Incucyte confluency), BT-549; format: cell-based; conditions: Homo sapiens, 96 h, 4 days, read-out: IC50, inhibition of proliferation
Experimental: as §1, §2

[7] = target: PPARα (Homo sapiens (Human), UniProt Q07869); experiment: Transcriptional activation assay in COS7 cells, PPARα; format: cell-based; conditions: PPRE luciferase reporter, PD151 and PD152 at 10 μM
PPARα, sequence (Q07869 whole entry, species assumed): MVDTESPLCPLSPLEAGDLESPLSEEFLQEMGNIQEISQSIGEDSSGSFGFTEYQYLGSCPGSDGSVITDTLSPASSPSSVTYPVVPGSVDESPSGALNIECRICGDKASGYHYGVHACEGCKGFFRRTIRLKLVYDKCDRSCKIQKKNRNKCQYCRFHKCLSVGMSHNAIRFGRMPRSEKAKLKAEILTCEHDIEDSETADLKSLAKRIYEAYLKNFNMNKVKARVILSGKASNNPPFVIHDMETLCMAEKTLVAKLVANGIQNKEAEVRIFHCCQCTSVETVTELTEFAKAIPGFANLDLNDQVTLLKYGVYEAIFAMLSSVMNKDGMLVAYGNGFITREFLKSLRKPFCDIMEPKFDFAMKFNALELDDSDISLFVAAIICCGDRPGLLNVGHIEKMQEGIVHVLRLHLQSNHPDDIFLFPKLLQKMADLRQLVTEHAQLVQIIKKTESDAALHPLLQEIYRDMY
Experimental: COS-7 were cultured in 6-well plates and co-transfected with either a luciferase reporter driven by 3 copies of a PPRE and expression vector for either PPARδ, PPARα or PPARγ together with a vector harboring cDNA for β-galactosidase, serving as a transfection control. To test whether FABP4 or FABP5 mediate activation of their cognate receptors PPARγ and PPARδ, respectively, cells were also co-transfected with a plasmid harboring sequence of either FABP4 or FABP5. 18 h post-transfection, cells were placed in a serum-free medium and treated with agonist/compound. 18 h. later, cells were lysed, luciferase activity was assayed (Promega, WI, USA) and corrected for transfection efficiency by the activity of β-galactosidase.
Transcriptional activation assays were carried out utilizing COS7 cells as described above.

[8] = Tissue distribution in C57BL/6 male mice; format: in vivo, C57BL/6 mice; conditions: oral 10 mg/kg; for PK parameters / concentration at 0.5 h / concentration at 2 h / concentration at 4 h / concentration at 8 h / Kp: mice; for concentration at 0.5 h / concentration at 2 h / concentration at 4 h / concentration at 8 h / Kp: male, C57BL/6, mouse; for Kp: read-out: Tissue/Plasma ratio (Kp)
[9] = mouse, plasma, intravenous 1 mg/kg
[10] = rat, plasma, intravenous 1 mg/kg
[11] = brain, read-out: Brain concentration
[12] = liver, read-out: Liver concentration
[13] = pancreas, read-out: Pancreas concentration
[14] = plasma, read-out: Plasma concentration
[15] = skeletal muscle, read-out: Skeletal muscle concentration
[16] = white adipose tissue, read-out: Adipose tissue concentration

CC(C)Oc1nc(NC(=O)CSCC(=O)O)c(Cl)cc1Cl [PD152, 2-((2-((3,5-dichloro-6-isopropoxypyridin-2-yl)amino)-2-oxoethyl)thio)acetic acid]
Inhibition of OVCAR5 proliferation [1]: inhibited proliferation of the two cell lines in a dose-dependent manner
Thalf ([2]; oral 10 mg/kg): 2.6 h
clearance [2, 9]: 16.1 mL/min/kg
half-life [2, 9]: 180 to 240 min
bioavailability ([2]; mouse, plasma, single oral dose 10 mg/kg): 75%
Kd [3]: 18 nM
Thalf ([4]; oral 10 mg/kg): 1.13 h
clearance [4, 10]: 16 mL/min/kg
half-life [4, 10]: ~43.8 min
bioavailability ([4]; rat, plasma, oral 10 mg/kg): 141%
Kd [5]: 188 nM
IC50 [6]: 1040 nM
Activation of transcription by PPARα [7]: None of these tested compounds activated; also recorded: none of the tested compounds PD151 and PD152 activated transcription
PK parameters ([8]; Adipose tissue): 6655.32 ng·h/g
Detection in the brain (blood-brain barrier crossing) ([8]; C57BL/6 male mice): Only traces
Mean peak adipose tissue concentration ([8]; C57BL/6 male mice): 2109.6 ng/g
Mean peak liver concentration ([8]; C57BL/6 male mice): 3893.5 ng/g
Mean peak pancreas concentration ([8]; C57BL/6 male mice): 215.09 ng/g
Mean peak plasma concentration ([8]; C57BL/6 male mice): 3929.88 ng/mL
Mean peak skeletal muscle concentration ([8]; C57BL/6 male mice): 139.45 ng/g
PK parameters ([8]; Liver): 6704.59 ng·h/g
PK parameters ([8]; Pancreas): 352.54 ng·h/g
PK parameters ([8]; Skeletal Muscle): 270.09 ng·h/g
concentration at 0.5 h [8, 11]: 14.8 ng/g
concentration at 2 h [8, 11]: 0 ng/g
concentration at 4 h [8, 11]: 0 ng/g
concentration at 8 h [8, 11]: 0 ng/g
concentration at 0.5 h [8, 12]: 3890 ng/g
concentration at 2 h [8, 12]: 419 ng/g
concentration at 4 h [8, 12]: 534 ng/g
concentration at 8 h [8, 12]: 238 ng/g
concentration at 0.5 h [8, 13]: 215 ng/g
concentration at 2 h [8, 13]: 28.2 ng/g
concentration at 4 h [8, 13]: 20 ng/g
concentration at 8 h [8, 13]: 14 ng/g
concentration at 0.5 h [8, 14]: 3930 ng/mL
concentration at 2 h [8, 14]: 236 ng/mL
concentration at 4 h [8, 14]: 210 ng/mL
concentration at 8 h [8, 14]: 149 ng/mL
concentration at 0.5 h [8, 15]: 139 ng/g
concentration at 2 h [8, 15]: 26.5 ng/g
concentration at 4 h [8, 15]: 14 ng/g
concentration at 8 h [8, 15]: 21.1 ng/g
concentration at 0.5 h [8, 16]: 2110 ng/g
concentration at 2 h [8, 16]: 1020 ng/g
concentration at 4 h [8, 16]: 520 ng/g
concentration at 8 h [8, 16]: 596 ng/g
Kp ([8]; Adipose tissue): 1.3
Kp ([8]; Liver): 1.3
Kp ([8]; Pancreas): 0.07
Kp ([8]; Skeletal Muscle): 0.05
